Test results: the NIST ThermoML archive (doi:10.1021/je100410k)
Numbers after ± are expanded uncertainties.

Test: activity coefficient (dimensionless); of the first substance listed, at infinite dilution; xn = mol fraction of the nth substance listed
Conditions: 101 kPa, Liquid, Chromatography, x1 = 0

Compound | activity coefficient (338.2 K) | activity coefficient (348.2 K) | activity coefficient (358.2 K) | activity coefficient (368.2 K) | activity coefficient (338.15 K) | activity coefficient (348.15 K) | activity coefficient (358.15 K) | activity coefficient (368.15 K)
Cc1ccccc1C [1,2-dimethylbenzene] + CCCCn1cc[n+](C)c1.Cc1ccc(S(=O)(=O)[O-])cc1 | 4.07 ± 0.28 | 4.01 ± 0.27 | 3.96 ± 0.27 | 3.93 ± 0.27 | – | – | – | –
Cc1cccc(C)c1 [1,3-dimethylbenzene] + CCCCn1cc[n+](C)c1.Cc1ccc(S(=O)(=O)[O-])cc1 | 4.76 ± 0.32 | 4.67 ± 0.32 | 4.63 ± 0.32 | 4.58 ± 0.31 | – | – | – | –
Cc1ccc(C)cc1 [1,4-dimethylbenzene] + CCCCn1cc[n+](C)c1.Cc1ccc(S(=O)(=O)[O-])cc1 | 4.73 ± 0.32 | 4.64 ± 0.32 | 4.61 ± 0.31 | 4.56 ± 0.31 | – | – | – | –
C=CCCCCC [1-heptene] + CCCCn1cc[n+](C)c1.Cc1ccc(S(=O)(=O)[O-])cc1 | 24.2 ± 1.7 | 22.5 ± 1.5 | 21.5 ± 1.5 | 20.4 ± 1.4 | – | – | – | –
C#CCCCCC [1-heptyne] + CCCCn1cc[n+](C)c1.Cc1ccc(S(=O)(=O)[O-])cc1 | 5.13 ± 0.35 | 5.23 ± 0.36 | 5.34 ± 0.36 | 5.43 ± 0.37 | – | – | – | –
C#CCCCC [1-hexyne] + CCCCn1cc[n+](C)c1.Cc1ccc(S(=O)(=O)[O-])cc1 | 3.69 ± 0.25 | 3.78 ± 0.26 | 3.86 ± 0.26 | 3.94 ± 0.27 | – | – | – | –
C#CCCCCCC [1-octyne] + CCCCn1cc[n+](C)c1.Cc1ccc(S(=O)(=O)[O-])cc1 | 7.12 ± 0.49 | 7.28 ± 0.5 | 7.39 ± 0.5 | 7.15 ± 0.49 | – | – | – | –
C=CCCC [1-pentene] + CCCCn1cc[n+](C)c1.Cc1ccc(S(=O)(=O)[O-])cc1 | 13.7 ± 0.9 | 12.6 ± 0.9 | 11.9 ± 0.8 | 11.2 ± 0.8 | – | – | – | –
COC(C)(C)C [2-methoxy-2-methylpropane] + CCCCn1cc[n+](C)c1.Cc1ccc(S(=O)(=O)[O-])cc1 | 8.28 ± 0.56 | 7.84 ± 0.53 | 7.58 ± 0.52 | 7.37 ± 0.5 | – | – | – | –
CC(C)=O [acetone] + CCCCn1cc[n+](C)c1.Cc1ccc(S(=O)(=O)[O-])cc1 | 1.48 ± 0.1 | 1.46 ± 0.1 | 1.45 ± 0.1 | 1.42 ± 0.09 | – | – | – | –
c1ccccc1 [benzene] + CCCCn1cc[n+](C)c1.Cc1ccc(S(=O)(=O)[O-])cc1 | 1.96 ± 0.13 | 1.93 ± 0.13 | 1.93 ± 0.13 | 1.93 ± 0.13 | – | – | – | –
C1CCCCCC1 [cycloheptane] + CCCCn1cc[n+](C)c1.Cc1ccc(S(=O)(=O)[O-])cc1 | 17.7 ± 1.2 | 16.3 ± 1.1 | 15.4 ± 1.1 | 14.5 ± 1 | – | – | – | –
C1CCCCC1 [cyclohexane] + CCCCn1cc[n+](C)c1.Cc1ccc(S(=O)(=O)[O-])cc1 | 16.3 ± 1.1 | 14.6 ± 1 | 13.4 ± 0.9 | 12.5 ± 0.9 | – | – | – | –
C1CCCCCCC1 [cyclooctane] + CCCCn1cc[n+](C)c1.Cc1ccc(S(=O)(=O)[O-])cc1 | 21.3 ± 1.5 | 19.7 ± 1.3 | 18.6 ± 1.3 | 17.6 ± 1.2 | – | – | – | –
C1CCCC1 [cyclopentane] + CCCCn1cc[n+](C)c1.Cc1ccc(S(=O)(=O)[O-])cc1 | 11.3 ± 0.8 | 9.9 ± 0.7 | 9.3 ± 0.6 | 9 ± 0.6 | – | – | – | –
CCCCCCCCCC [decane] + CCCCn1cc[n+](C)c1.Cc1ccc(S(=O)(=O)[O-])cc1 | 119 ± 8.1 | 106 ± 7.3 | 98.3 ± 6.7 | 90.8 ± 6.2 | – | – | – | –
CCOCC [diethyl ether] + CCCCn1cc[n+](C)c1.Cc1ccc(S(=O)(=O)[O-])cc1 | 6.57 ± 0.45 | 6.36 ± 0.43 | 6.16 ± 0.42 | 5.93 ± 0.4 | – | – | – | –

Compound | activity coefficient (338.2 K) | activity coefficient (348.2 K) | activity coefficient (358.2 K) | activity coefficient (368.2 K) | activity coefficient (338.15 K) | activity coefficient (348.15 K) | activity coefficient (358.15 K) | activity coefficient (368.15 K)
CCCOCCC [dipropyl ether] + CCCCn1cc[n+](C)c1.Cc1ccc(S(=O)(=O)[O-])cc1 | 15.5 ± 1.1 | 15.2 ± 1 | 14.2 ± 1 | 13.6 ± 0.9 | – | – | – | –
CCO [ethanol] + CCCCn1cc[n+](C)c1.Cc1ccc(S(=O)(=O)[O-])cc1 | 0.359 ± 0.033 | 0.357 ± 0.033 | 0.358 ± 0.033 | 0.358 ± 0.033 | – | – | – | –
CCc1ccccc1 [ethylbenzene] + CCCCn1cc[n+](C)c1.Cc1ccc(S(=O)(=O)[O-])cc1 | 4.45 ± 0.3 | 4.4 ± 0.3 | 4.36 ± 0.3 | 4.32 ± 0.29 | – | – | – | –
CCCCCCC [heptane] + CCCCn1cc[n+](C)c1.Cc1ccc(S(=O)(=O)[O-])cc1 | – | – | – | – | 48.1 ± 3.3 | 42.2 ± 2.9 | 39.2 ± 2.7 | 36.6 ± 2.5
C=CCCCC [hex-1-ene] + CCCCn1cc[n+](C)c1.Cc1ccc(S(=O)(=O)[O-])cc1 | 18 ± 1.2 | 16.6 ± 1.1 | 15.7 ± 1.1 | 14.9 ± 1 | – | – | – | –
CCCCCC [hexane] + CCCCn1cc[n+](C)c1.Cc1ccc(S(=O)(=O)[O-])cc1 | – | – | – | – | 36.3 ± 2.5 | 31.5 ± 2.2 | 29.2 ± 2 | 27.6 ± 1.9
CO [methanol] + CCCCn1cc[n+](C)c1.Cc1ccc(S(=O)(=O)[O-])cc1 | 0.217 ± 0.029 | 0.219 ± 0.029 | 0.221 ± 0.029 | 0.223 ± 0.029 | – | – | – | –
CCCCCCCCC [nonane] + CCCCn1cc[n+](C)c1.Cc1ccc(S(=O)(=O)[O-])cc1 | 86.1 ± 5.9 | 77.5 ± 5.3 | 71.3 ± 4.9 | 66.5 ± 4.6 | – | – | – | –
C=CCCCCCC [oct-1-ene] + CCCCn1cc[n+](C)c1.Cc1ccc(S(=O)(=O)[O-])cc1 | 33.1 ± 2.3 | 31 ± 2.1 | 29.5 ± 2 | 28.2 ± 1.9 | – | – | – | –
CCCCCCCC [octane] + CCCCn1cc[n+](C)c1.Cc1ccc(S(=O)(=O)[O-])cc1 | 63.9 ± 4.4 | 57.7 ± 4 | 53 ± 3.6 | 49.6 ± 3.4 | – | – | – | –
CCCC(C)=O [pentan-2-one] + CCCCn1cc[n+](C)c1.Cc1ccc(S(=O)(=O)[O-])cc1 | 2.68 ± 0.18 | 2.64 ± 0.18 | 2.61 ± 0.18 | 2.58 ± 0.18 | – | – | – | –
CCC(=O)CC [pentan-3-one] + CCCCn1cc[n+](C)c1.Cc1ccc(S(=O)(=O)[O-])cc1 | 2.68 ± 0.18 | 2.65 ± 0.18 | 2.63 ± 0.18 | 2.6 ± 0.18 | – | – | – | –
CCCO [propan-1-ol] + CCCCn1cc[n+](C)c1.Cc1ccc(S(=O)(=O)[O-])cc1 | 0.437 ± 0.035 | 0.434 ± 0.035 | 0.437 ± 0.035 | 0.437 ± 0.035 | – | – | – | –
C1CCOC1 [tetrahydrofuran] + CCCCn1cc[n+](C)c1.Cc1ccc(S(=O)(=O)[O-])cc1 | 1.88 ± 0.13 | 1.87 ± 0.13 | 1.86 ± 0.13 | 1.85 ± 0.12 | – | – | – | –
c1ccsc1 [thiophene] + CCCCn1cc[n+](C)c1.Cc1ccc(S(=O)(=O)[O-])cc1 | 1.11 ± 0.07 | 1.13 ± 0.07 | 1.14 ± 0.07 | 1.16 ± 0.07 | – | – | – | –
Cc1ccccc1 [toluene] + CCCCn1cc[n+](C)c1.Cc1ccc(S(=O)(=O)[O-])cc1 | 3.03 ± 0.21 | 3.01 ± 0.2 | 2.99 ± 0.2 | 2.97 ± 0.2 | – | – | – | –
O [water] + CCCCn1cc[n+](C)c1.Cc1ccc(S(=O)(=O)[O-])cc1 | 0.191 ± 0.029 | 0.196 ± 0.029 | 0.201 ± 0.029 | 0.207 ± 0.029 | – | – | – | –
